The source of these data is patent publication US20260209211A1, “CYCLIN K DEGRADER AND USE THEREOF” (ADLAI NORTYE BIOPHARMA CO., LTD., priority 2022, published 2026).

Common to all, as to assay type: cell-based
The test system of assay [1] is HGC27 (Human Gastric Cancer Cell). Kind of assay: Bioactivity assay for HGC27 cell growth inhibition (CellTiter-Glo). As to conditions: HGC-27, HGC27 cells, 24 hours, CellTiter-Glo, highest concentration 10 μM, read-out: HGC27 CTG IC50. Here is the method: This detection method is used to evaluate the biological activity of the compounds of the present disclosure at the cellular level.
(§1) HGC27 cells (purchased from the Chinese Academy of Sciences) were harvested, resuspended in complete medium and adjusted to a cell density of 0.2×10^6 cells per ml. The cell suspension was added to a 96-well plate at a volume of 100 μL per well and cultured overnight in a 37° C., 5% CO2 incubator. Prepare the test compound and add it to the cell plate so that the highest concentration of the compound is 10 μM. Set 8 concentration points according to 3-fold dilution. At the same time, 100% inhibition control wells were set, that is, wells with no cells but only an equal volume of complete culture medium; and 0% inhibition control wells, that is, wells with cells added with 0.1% DMSO. The cell plate was cultured at 37° C. and 5% CO2 for 24 hours. Remove the cell culture plate and add 25 μl CellTiter-Glo® Luminescent Cell Viability Reagent (promega cat #G7573) to each well. Incubate in the dark for 10 minutes and then transfer 100 μL to a white plate and use Molecular Devices SpectraMax i3 to detect chemiluminescence. The inhibition rate was calculated using the following formula for data processing: compound inhibition rate=(0% inhibition control well signal−compound treatment well signal)/(0% inhibition control well signal−100% inhibition control well signal)*100%. The calculated data were fitted with four parameters using GraphPad Prism software and the corresponding IC50 was calculated.
A general note: ATP-based viability assays read luminescence as a measure of living cells.

For assay [2], the system named is NCI-N87 (Human Gastric Cancer Cell). Description: Bioactivity detection of NCI-N87 cell growth inhibition (CellTiter-Glo). As to conditions: NCI-N87 cells, 72 hours, highest concentration 10 μM, read-out: N87 CTG IC50. On the procedure:
This detection method is used to evaluate the biological activity of the compounds described in this disclosure at the cellular level.
as §1, with “NCI-N87” for “HGC27”, “0.1×10^6” for “0.2×10^6”, “72” for “24”, “CellTiter-Glo” for “CellTiter-Glo®”, “signal)[…].” for “signal)*100%.”

Assay [3] addresses T1, Cyclin K (CCNK) (Homo sapiens, UniProt O75909+Q9NYV4).
T1 construct: host or cells: HEK293
Kind of assay: Western blot analysis of Cyclin K (CCNK) degradation in HEK293 cells. The conditions noted are these: 6 h, different concentrations, compared with the control (FIG. 1). On the procedure: HEK293 cells (ATCC, cat #CRL-1573) were harvested and the cell density was adjusted to 1×10^6 cells per ml. 1 ml of cell suspension was plated into each well of a 6-well plate and cultured overnight. The compound stock solution was taken and diluted with DMSO to the appropriate concentration. The diluted compounds were added to the cell wells at a ratio of 1:1000 using culture medium to ensure that the DMSO concentration in each well was 0.1%. Negative control wells were also set up, which contained complete medium containing 0.1% DMSO. After treatment with the compounds at the concentrations indicated in the figures and at different times, total cell protein was extracted using RIPA cell lysis buffer (Beyotime, cat #P0013B) containing PMSF. After protein quantification using the BCA protein quantification kit (Thermo Fisher, cat #A53225), each sample was loaded with 40 μg for subsequent SDS-PAGE and western blot experiments. The specific conditions are as follows: after running the gel at a constant voltage of 120 V for 90 minutes, transfer the membrane at a constant current of 320 mA for 60 minutes. Incubate the antibodies according to the recommended dilution ratio and incubation time. The antibody information used in the experiment is as follows: Anti-GAPDH antibody (abcam, cat #ab9485), Anti-Cyclin K antibody (abcam, cat #ab85854), Goat anti-Rabbit IgG (H+L) Cross-Adsorbed Secondary Antibody, HRP (invitrogen, cat #G-21234). ECL luminescent solution (Thermo Fisher, cat #32209) was used for color development. The final results were analyzed using a gel imaging system.
According to the above detection method, some compounds described in the present disclosure were evaluated.
(In general: Immunoblotting shows a protein as a band on a membrane.)

T1 sequence (O75909 whole entry): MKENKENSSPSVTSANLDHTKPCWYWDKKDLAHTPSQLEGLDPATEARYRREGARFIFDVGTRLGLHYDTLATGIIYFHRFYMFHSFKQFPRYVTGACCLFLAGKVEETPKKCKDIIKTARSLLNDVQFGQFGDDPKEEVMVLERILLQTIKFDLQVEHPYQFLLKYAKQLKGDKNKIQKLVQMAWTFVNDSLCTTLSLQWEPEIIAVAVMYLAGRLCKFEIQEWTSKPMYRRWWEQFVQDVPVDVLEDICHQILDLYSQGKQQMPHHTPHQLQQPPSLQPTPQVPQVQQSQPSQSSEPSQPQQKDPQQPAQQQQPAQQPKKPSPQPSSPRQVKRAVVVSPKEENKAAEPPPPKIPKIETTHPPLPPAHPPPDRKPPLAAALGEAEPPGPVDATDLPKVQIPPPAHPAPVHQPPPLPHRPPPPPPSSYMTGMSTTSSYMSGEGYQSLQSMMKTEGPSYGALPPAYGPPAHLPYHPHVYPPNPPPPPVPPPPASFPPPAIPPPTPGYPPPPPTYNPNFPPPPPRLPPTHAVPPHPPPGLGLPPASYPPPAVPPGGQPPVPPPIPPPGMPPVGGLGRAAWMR
T1 sequence (Q9NYV4 whole entry): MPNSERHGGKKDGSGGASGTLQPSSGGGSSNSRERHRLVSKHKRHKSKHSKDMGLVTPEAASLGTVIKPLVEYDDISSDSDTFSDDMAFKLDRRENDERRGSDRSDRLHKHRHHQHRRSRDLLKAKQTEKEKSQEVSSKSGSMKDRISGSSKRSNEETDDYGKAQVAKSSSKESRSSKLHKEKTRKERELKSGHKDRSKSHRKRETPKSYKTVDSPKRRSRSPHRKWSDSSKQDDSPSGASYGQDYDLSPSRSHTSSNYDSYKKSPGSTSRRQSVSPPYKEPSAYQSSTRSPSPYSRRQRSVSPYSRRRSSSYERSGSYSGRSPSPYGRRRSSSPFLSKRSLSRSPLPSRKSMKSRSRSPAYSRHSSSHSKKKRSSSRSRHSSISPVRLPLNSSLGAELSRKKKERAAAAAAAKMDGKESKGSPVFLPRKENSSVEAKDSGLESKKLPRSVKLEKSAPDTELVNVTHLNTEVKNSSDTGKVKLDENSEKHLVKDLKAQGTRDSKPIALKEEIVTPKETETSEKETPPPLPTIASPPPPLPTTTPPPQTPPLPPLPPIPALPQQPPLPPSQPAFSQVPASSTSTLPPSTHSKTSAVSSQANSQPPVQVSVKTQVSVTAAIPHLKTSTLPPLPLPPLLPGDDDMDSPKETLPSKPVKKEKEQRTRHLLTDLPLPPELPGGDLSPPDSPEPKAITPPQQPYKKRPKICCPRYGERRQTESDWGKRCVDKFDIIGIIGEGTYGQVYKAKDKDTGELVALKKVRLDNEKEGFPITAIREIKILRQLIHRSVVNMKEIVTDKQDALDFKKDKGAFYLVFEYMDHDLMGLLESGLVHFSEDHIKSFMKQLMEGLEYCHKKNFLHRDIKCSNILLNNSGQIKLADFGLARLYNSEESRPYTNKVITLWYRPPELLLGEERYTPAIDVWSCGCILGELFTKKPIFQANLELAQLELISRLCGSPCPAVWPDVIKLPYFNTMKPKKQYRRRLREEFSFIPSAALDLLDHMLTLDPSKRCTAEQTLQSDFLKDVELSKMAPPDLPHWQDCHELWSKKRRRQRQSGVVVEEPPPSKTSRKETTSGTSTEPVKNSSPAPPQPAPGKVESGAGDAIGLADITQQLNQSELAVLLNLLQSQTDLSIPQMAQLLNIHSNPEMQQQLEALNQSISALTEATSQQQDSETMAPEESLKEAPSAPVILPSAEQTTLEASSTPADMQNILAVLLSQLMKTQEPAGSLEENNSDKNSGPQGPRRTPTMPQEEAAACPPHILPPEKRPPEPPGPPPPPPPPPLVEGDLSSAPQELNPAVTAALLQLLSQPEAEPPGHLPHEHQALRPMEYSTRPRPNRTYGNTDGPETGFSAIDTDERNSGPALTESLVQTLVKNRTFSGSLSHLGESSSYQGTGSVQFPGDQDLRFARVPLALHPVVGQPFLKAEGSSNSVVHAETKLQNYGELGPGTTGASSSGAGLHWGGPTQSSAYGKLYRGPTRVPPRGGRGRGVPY

For orientation: IC50 means the concentration needed to halve the response being measured. On to `C[C@@H](O)[C@@H](C)Nc1nc(NCc2ccc3c(c2)[nH]c2c(CO)ccnc23)ncc1C(F)(F)F` [Compound 18], for which the 50% inhibitory concentration (IC50) in assay [1] is 8 nM; in assay [2] it was less than 1 nM. Besides, the “degradation of Cyclin K (western blot)” value in assay [3] was “significantly induce the degradation of Cyclin K”.
